Measurements from patent US12239643B2, “Therapeutic agent for inflammatory diseases, autoimmune diseases, fibrotic diseases, and cancer diseases” (MEIJI SEIKA PHARMA CO., LTD., priority 2018, dated 2025).
pIC50: −log10 of the molar value. Read-outs that look alike come from different tables or passages of the source.

Tested on: PDE4
Test: Evaluation of PDE4 inhibitory activity, scintillation proximity assay
Assay type: biochemical
Details: scintillation proximity assay
In short: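 IC50 was derived from inhibition curves, referenced to an enzyme-free blank and a DMSO-only control. Compound, PDE4 preparation and tritiated cAMP reacted 120 min at RT in Tris-HCl buffer (pH 7.4) with MgCl2, EGTA and BSA; YSi-SPA beads with ZnSO4 bound product before scintillation counting.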

[1] = read-out: PDE4 Inhibitory Activity (Evaluation 1; concentration for the inhibition rate of 50%)
[2] = class symbols of Evaluation 1, read-out: PDE4 Inhibitory Activity (concentration for the inhibition rate of 50%, IC50), Evaluation 1

SMILES	pIC50 [1]	pIC50 [2]
OC(c1ccc(-c2nccs2)c2oc(N3CC4CCC(C3)N4O)nc12)C(F)(F)F (stereo not shown) [Example 379, 3-(7-(Thiazol-2-yl)-4-(2,2,2-trifluoro-1-hydroxyethyl)benzo[d]oxazol-2-yl)-3,8-diazabicyclo[3.2.1]octan-8-ol]	> 7.00	
COC(=O)c1ccc(-c2nccs2)c2oc(N3CC4CCC(C3)N4)nc12 [Example 237, Methyl 2-(3,8-diazabicyclo[3.2.1]octan-3-yl)-7-(thiazol-2-yl)benzo[d]oxazole-4-carboxylate]	> 7.00	
FC(F)(F)Oc1ccc(-c2nccs2)c2oc(N3CC4CCC(C3)N4)nc12 [Example 28, 2-(3,8-Diazabicyclo[3.2.1]octan-3-yl)-7-(thiazol-2-yl)-4-(trifluoromethoxy)benzo[d]oxazole]		> 7.00
CC(C)c1cc(-c2nccs2)c2oc(N3CC4CCCC(C3)N4)nc2c1 [Example 24, 2-(3,9-Diazabicyclo[3.3.1]nonan-3-yl)-5-isopropyl-7-(thiazol-2-yl)benzo[d]oxazole]		> 7.00
Oc1cc(-c2nccs2)c2oc(N3CC4CCCC(C3)N4)nc2c1 [Example 65, 2-(3,9-Diazabicyclo[3.3.1]nonan-3-yl)-7-(thiazol-2-yl)benzo[d]oxazol-5-ol]		> 7.00
CC(O)(c1cc(-c2nccs2)c2oc(N3CC4CCC(C3)N4)nc2c1OC(F)(F)F)C(F)(F)F (stereo not shown) [Example 217, 2-(2-(3,8-Diazabicyclo[3.2.1]octan-3-yl)-7-(thiazol-2-yl)-4-(trifluoromethoxy)benzo[d]oxazol-5-yl)-1,1,1-trifluoropropan-2-ol]	> 7.00	
COC(C)(C)c1cc(-c2cscn2)c2oc(N3CC4CC(C3)N4)nc2c1OC(F)(F)F [Example 287, 2-(3,6-Diazabicyclo[3.1.1]heptan-3-yl)-5-(2-methoxypropan-2-yl)-7-(thiazol-4-yl)-4-(trifluoromethoxy)benzo[d]oxazole]	> 7.00	
COC(c1cc(-c2nccs2)c2oc(N3CC4CC(C3)N4)nc2c1)C(F)(F)F (stereo not shown) [Example 144, 2-(3,6-Diazabicyclo[3.1.1]heptan-3-yl)-7-(thiazol-2-yl)-5-(2,2,2-trifluoro-1-methoxyethyl)benzo[d]oxazole]		> 7.00
O=C(NO)c1ccc(-c2nccs2)c2oc(N3CC4CC(C3)N4)nc12 [Example 367, 2-(3,6-Diazabicyclo[3.1.1]heptan-3-yl)-N-hydroxy-7-(thiazol-2-yl)benzo[d]oxazole-4-carboxamide]	> 7.00	
CC(O)(c1cc(-c2nccs2)c2oc(N3CC4CC(C3)N4)nc2c1)C(F)(F)F (stereo not shown) [Example 160, 2-(2-(3,6-Diazabicyclo[3.1.1]heptan-3-yl)-7-(thiazol-2-yl)benzo[d]oxazol-5-yl)-1,1,1-trifluoropropan-2-ol]		> 7.00
OC(c1ccc(-c2nccs2)c2oc(N3CC4CC(C3)N4)nc12)C(F)F (stereo not shown) [Example 125, 1-(2-(3,6-Diazabicyclo[3.1.1]heptan-3-yl)-7-(thiazol-2-yl)benzo[d]oxazol-4-yl)-2,2-difluoroethan-1-ol]		> 7.00
CCOC(=O)c1cc(-c2nccs2)c2oc(N3CC4CC(C3)N4)nc2c1OC(F)(F)F [Example 187, Ethyl 2-(3,6-diazabicyclo[3.1.1]heptan-3-yl)-7-(thiazol-2-yl)-4-(trifluoromethoxy)benzo[d]oxazole-5-carboxylate]	> 7.00	
OC(c1cc(-c2nccs2)c2oc(N3CC4CC(C3)N4)nc2c1)C(F)(F)F (stereo not shown) [Example 135, 1-(2-(3,6-Diazabicyclo[3.1.1]heptan-3-yl)-7-(thiazol-2-yl)benzo[d]oxazol-5-yl)-2,2,2-trifluoroethan-1-ol]		> 7.00
CC(O)c1cc(-c2nccs2)c2oc(N3CC4CCC(C3)N4O)nc2c1C(F)(F)F (stereo not shown) [Example 384, 3-(5-(1-Hydroxyethyl)-7-(thiazol-2-yl)-4-(trifluoromethyl)benzo[d]oxazol-2-yl)-3,8-diazabicyclo[3.2.1]octan-8-ol]	< 6.00	
CN(C)S(=O)(=O)c1ccc(-c2nccs2)c2oc(N3CC4CC(C3)N4)nc12 [Example 388, 2-(3,6-Diazabicyclo[3.1.1]heptan-3-yl)-N,N-dimethyl-7-(thiazol-2-yl)benzo[d]oxazole-4-sulfonamide]	> 7.00	
COC(C)c1cc(-c2nccs2)c2oc(N3CC4CC(C3)N4)nc2c1 (stereo not shown) [Example 111, 2-(3,6-Diazabicyclo[3.1.1]heptan-3-yl)-5-(1-methoxyethyl)-7-(thiazol-2-yl)benzo[d]oxazole]		> 7.00
OCCOC(c1ccc(-c2nccs2)c2oc(N3CC4CCC(C3)N4)nc12)C(F)(F)F (stereo not shown) [Example 225, 2-(1-(2-(3,8-Diazabicyclo[3.2.1]octan-3-yl)-7-(thiazol-2-yl)benzo[d]oxazol-4-yl)-2,2,2-trifluoroethoxy)ethan-1-ol]	> 7.00	

SMILES	pIC50 [1]	pIC50 [2]
FC(F)(F)c1cc(-c2nccs2)c2oc(N3CC4CCC(C3)N4)nc2c1 [Example 51, 2-(3,8-Diazabicyclo[3.2.1]octan-3-yl)-7-(thiazol-2-yl)-5-(trifluoromethyl)benzo[d]oxazole]		> 7.00
COC1(COC(c2ccc(-c3nccs3)c3oc(N4CC5CC(C4)N5)nc23)C(F)(F)F)CC1 (stereo not shown) [Example 282, 2-(3,6-Diazabicyclo[3.1.1]heptan-3-yl)-7-(thiazol-2-yl)-4-(2,2,2-trifluoro-1-((1-methoxycyclopropyl)methoxy)ethyl)benzo[d]oxazole]	> 7.00	
N#CCOC(c1cc(-c2nccs2)c2oc(N3CC4CCC(C3)N4)nc2c1)C(F)(F)F (stereo not shown) [Example 153, 2-(1-(2-(3,8-Diazabicyclo[3.2.1]octan-3-yl)-7-(thiazol-2-yl)benzo[d]oxazol-5-yl)-2,2,2-trifluoroethoxy)acetonitrile]		> 7.00
O=C(O)c1cc(-c2nccs2)c2oc(N3CC4CCC(C3)N4)nc2c1OC(F)(F)F [Example 189, 2-(3,8-Diazabicyclo[3.2.1]octan-3-yl)-7-(thiazol-2-yl)-4-(trifluoromethoxy)benzo[d]oxazole-5-carboxylic acid]	6.00 to 7.00	
COC(C)(C)c1cc(-c2nccs2)c2oc(N3CC4CCCC(C3)N4)nc2c1OC(F)(F)F [Example 200, 2-(3,9-Diazabicyclo[3.3.1]nonan-3-yl)-5-(2-methoxypropan-2-yl)-7-(thiazol-2-yl)-4-(trifluoromethoxy)benzo[d]oxazole]	> 7.00	
Clc1ccc(-c2nccs2)c2oc(N3CC4CCCC(C3)N4)nc12 [Example 38, 2-(3,9-Diazabicyclo[3.3.1]nonan-3-yl)-4-chloro-7-(thiazol-2-yl)benzo[d]oxazole]		> 7.00
CC(C)c1cc(-c2nccs2)c2oc(N3CC4CC(C3)N4)nc2c1 [Example 22, 2-(3,6-Diazabicyclo[3.1.1]heptan-3-yl)-5-isopropyl-7-(thiazol-2-yl)benzo[d]oxazole]		> 7.00
OC(c1cc(-c2nccs2)c2oc(N3CC4CCC(C3)N4)nc2c1)C(F)(F)F (racemic) [Example 137, 1-(2-(3,8-Diazabicyclo[3.2.1]octan-3-yl)-7-(thiazol-2-yl)benzo[d]oxazol-5-yl)-2,2,2-trifluoroethan-1-ol]		> 7.00
COC(c1cc(-c2nccs2)c2oc(N3CC4CCCC(C3)N4)nc2c1)C(F)(F)F (stereo not shown) [Example 145, 2-(3,9-Diazabicyclo[3.3.1]nonan-3-yl)-7-(thiazol-2-yl)-5-(2,2,2-trifluoro-1-methoxyethyl)benzo[d]oxazole]		> 7.00
CC(O)(c1ccc(-c2nccs2)c2oc(N3CC4CC(C3)N4)nc12)C(F)F (stereo not shown) [Example 126, 2-(2-(3,6-Diazabicyclo[3.1.1]heptan-3-yl)-7-(thiazol-2-yl)benzo[d]oxazol-4-yl)-1,1-difluoropropan-2-ol]		> 7.00
N#CCOC(c1ccc(-c2nccs2)c2oc(N3CC4CCC(C3)N4)nc12)C(F)(F)F (stereo not shown) [Example 228, 2-(1-(2-(3,8-Diazabicyclo[3.2.1]octan-3-yl)-7-(thiazol-2-yl)benzo[d]oxazol-4-yl)-2,2,2-trifluoroethoxy)acetonitrile]	> 7.00	
CC(O)C(F)(F)Oc1ccc(-c2cscn2)c2oc(N3CC4CC(C3)N4)nc12 (stereo not shown) [Example 309, 1-((2-(3,6-Diazabicyclo[3.1.1]heptan-3-yl)-7-(thiazol-4-yl)benzo[d]oxazol-4-yl)oxy)-1,1-difluoropropan-2-ol]	> 7.00	
COC(c1cc(-c2nccs2)c2oc(N3CC4CCC(C3)N4)nc2c1)C(F)(F)F (stereo not shown) [Example 142, 2-(3,8-Diazabicyclo[3.2.1]octan-3-yl)-7-(thiazol-2-yl)-5-(2,2,2-trifluoro-1-methoxyethyl)benzo[d]oxazole]		> 7.00
CN(C)Cc1cc(-c2nccs2)c2oc(N3CC4CCC(C3)N4)nc2c1 [Example 169, 1-(2-(3,8-Diazabicyclo[3.2.1]octan-3-yl)-7-(thiazol-2-yl)benzo[d]oxazol-5-yl)-N,N-dimethylmethanamine]		> 7.00
CON=C(C)c1cc(-c2nccs2)c2oc(N3CC4CCC(C3)N4)nc2c1OC(F)(F)F (mixture of isomers) [Example 218, (E)-1-(2-(3,8-diazabicyclo[3.2.1]octan-3-yl)-7-(thiazol-2-yl)-4-(trifluoromethoxy)benzo[d]oxazol-5-yl)ethan-1-one O-methyloxime and (Z)-1-(2-(3,8-diazabicyclo[3.2.1]octan-3-yl)-7-(thiazol-2-yl)-4-(trifluoromethoxy)benzo[d]oxazol-5-yl)ethan-1-one O-methyloxime]	> 7.00	
FC(F)(F)c1cc(-c2nccs2)c2oc(N3CC4CC(C3)N4)nc2c1 [Example 52, 2-(3,6-Diazabicyclo[3.1.1]heptan-3-yl)-7-(thiazol-2-yl)-5-(trifluoromethyl)benzo[d]oxazole]		> 7.00
CC(C)c1cc(-c2nccs2)c2oc(N3CC4COCC(C3)N4)nc2c1 [Example 23, 7-(5-Isopropyl-7-(thiazol-2-yl)benzo[d]oxazol-2-yl)-3-oxa-7,9-diazabicyclo[3.3.1]nonane]		6.00 to 7.00
